In PMC11066877, “Development and Characterization of Novel FAP-Targeted Theranostic Pairs: A Bench-to-Bedside Study” (Research, 2023):
Where two headings read alike, the source gives them in different places.

How the values were obtained:
T3M-4 tumor = experiment: Radioligand therapy in T3M-4 pancreatic cancer models; format: in vivo, mice; settings: T3M-4 models
Procedure: HT1080-FAP tumor models with higher levels of FAP expression were utilized in this study. Tumor-bearing mice were subjected to therapy experiments when the tumor volume reached 50 to 180 mm^3. Tumor models with different tumor volumes were injected with different therapeutic doses. Mice bearing HT1080-FAP tumors of slightly larger tumor volumes were randomly assigned into 4 groups (n = 5 per group): control group and treatment groups with 800 μCi of [^177Lu]Lu-DOTA-FD1, 400 μCi of [^177Lu]Lu-DOTA-FD3, and 600 μCi [^177Lu]Lu-DOTA-FD3. Mice bearing HT1080-FAP tumors of slightly smaller tumor volumes were also divided into 4 groups (n = 6 per group): control group and treatment groups with 200 μCi of [^177Lu]Lu-DOTA-FD1, 200 μCi of [^177Lu]Lu-DOTA-FD2, and 200 μCi of [^177Lu]Lu-DOTA-FD3. Tumor volume and mice body weight were examined daily after a single-dose injection. Weight monitoring is expressed as a percentage of initial weight on the measurement day. Tumor volume was measured as half of the length × width squared times. Mice were euthanized when the tumor volume exceeded 1,500 mm^3, the tumor ruptured, or when it lost more than 20% of its body weight. T3M-4 tumor models with abundant stroma were established to validate the therapeutic efficacy of [^177Lu]Lu-DOTA-FD3. […]

[1] = Ex vivo biodistribution of 177Lu-labeled radioligands in tumor-free nude mice; settings: mouse, blood, intravenous, 1.11 MBq, total radioactivity, 24 h p.i., read-out: accumulation in the blood pool (biodistribution)
Text: (§1) After imaging collection and image reconstruction, samples from euthanized experimental mice, including blood and multiple significant organs, were harvested and weighed. The radioactivity in each collected tissue was counted using an automated gamma counter (Wizard 2480, PerkinElmer) and the accumulation of radioactivity in different tissues and organs was quantified and expressed as %ID/g (mean ± SD). [^177Lu]Lu-DOTA-FD1 (~1.11 MBq, n = 3), [^177Lu]Lu-DOTA-FD2 (~1.11 MBq, n = 3), and [^177Lu]Lu-DOTA-FD3 (~1.11 MBq, n = 3) were injected into the tail vein of free nude mice at 6 h, 24 h, and 24 h for ex vivo biodistribution to verify the circulation time of the 3 probes in vivo. Biodistribution data from tumor-bearing mice injected with [^177Lu]Lu-DOTA-FD3 at 45 h (~1.11 MBq, n = 4) and 90 h (~1.11 MBq, n = 3) validated the prolonged enrichment of the probe at the tumor site. At the end of each probe imaging and radioactivity counting study, tumor tissues were fixed in paraformaldehyde tissue fixative. Briefly, sections of 10 μm were cut and stained for H&E following the standard protocols. IHC staining with a FAP antibody (ab227703, Abcam) was performed only on tumor tissues following accepted techniques.

[2] = Stability of 177Lu-labeled radiopharmaceuticals in FBS and PBS; format: in vitro ADME; settings: 50% FBS and 50% PBS, checked at 2 h and 24 h
Procedure: To perform ^68Ga-labeling, approximately 20 nmol of FD1, FD2, or FD3 was dissolved in 20 μl of dimethyl sulfoxide and 230 μl of sterile deionized water. This mixture was added to 400 μl of ^68GaCl3 solution (containing 37 MBq) in 0.1 M HCl, with pH adjusted to 4.0 using 0.1 M NH4OAC. The mixture was incubated at 100 °C for 10 min without any additional purification steps. For ^177Lu-labeling, high-purity radionuclide ^177LuCl3 in 0.04 M HCl (3.9 GBq in 97 μl) was purchased from ITM (Munich, Germany). ^177LuCl3 solution (555 MBq in 0.04 M HCl) was added to 500 μl of 1M NH4OAC (pH = 5), followed by the addition of 375 nmol of FD1, FD2, or FD3. The solution was shaken at a temperature of 100 °C for a duration of 30 min. Instant thin-layer chromatography (iTLC; Eckert & Ziegler Radiopharma Inc.) was used to evaluate the RCP of the final products. For iTLC, the mobile phase consisted of 1 M NH4OAC and methyl alcohol in a ratio of 1:1. The final solution must be adjusted to pH 7.0 before being injected into the experimental mice via the tail vein. The stability of ^177Lu-labeled radiopharmaceuticals was evaluated in a mixture of 50% FBS and 50% PBS at 2 h and 24 h after preparation. In the process of preparing each [^68Ga]Ga-DOTA-FD1 for clinical imaging, the end product underwent sterilization by passing it through a 0.22-μm Millipore filter.

HT1080-FAP tumor = experiment: FAP-targeted radioligand therapy in HT1080-FAP tumor models; format: in vivo, mice
Procedure: HT1080-FAP tumor models with higher levels of FAP expression were utilized in this study. Tumor-bearing mice were subjected to therapy experiments when the tumor volume reached 50 to 180 mm^3. Tumor models with different tumor volumes were injected with different therapeutic doses. Mice bearing HT1080-FAP tumors of slightly larger tumor volumes were randomly assigned into 4 groups (n = 5 per group): control group and treatment groups with 800 μCi of [^177Lu]Lu-DOTA-FD1, 400 μCi of [^177Lu]Lu-DOTA-FD3, and 600 μCi [^177Lu]Lu-DOTA-FD3. Mice bearing HT1080-FAP tumors of slightly smaller tumor volumes were also divided into 4 groups (n = 6 per group): control group and treatment groups with 200 μCi of [^177Lu]Lu-DOTA-FD1, 200 μCi of [^177Lu]Lu-DOTA-FD2, and 200 μCi of [^177Lu]Lu-DOTA-FD3. Tumor volume and mice body weight were examined daily after a single-dose injection. Weight monitoring is expressed as a percentage of initial weight on the measurement day. Tumor volume was measured as half of the length × width squared times. Mice were euthanized when the tumor volume exceeded 1,500 mm^3, the tumor ruptured, or when it lost more than 20% of its body weight. T3M-4 tumor models with abundant stroma were established to validate the therapeutic efficacy of [^177Lu]Lu-DOTA-FD3. When the tumor volume grew to 100 to 150 mm^3, the mice were randomly divided into 2 groups (n = 7 per group): free ^177Lu treatment group and 500 μCi [^177Lu]Lu-DOTA-FD3 treatment group. Tumor volume and mice body weight were examined every 2 days.

[3] = Ex vivo biodistribution of [177Lu]Lu-DOTA-FD3 in HT1080-FAP tumor models; design: species or system mice; settings: nude (thymus-free), mouse, 1.11 MBq, total radioactivity
Text: as §1

[4] = average tumor volume 180 mm^3 at onset, single dose 400 μCi or 600 μCi

CCCCCC(=O)N[C@H]1CSCc2cc(CSCCNC(=O)[C@H](CCCCNC(=O)CCCc3ccc(I)cc3)NC(=O)[C@@H](NC(=O)[C@H](CCSC)NC(=O)CN3CCN(CC(=O)O)CCN(CC(=O)O)CCN(CC(=O)O)CC3)C(C)C)cc(c2)CSC[C@@H](C(=O)O)NC(=O)[C@H](Cc2ccccc2)NC(=O)[C@H](CCC(N)=O)NC(=O)[C@H]([C@@H](C)O)NC(=O)[C@@H]2CCCN2C(=O)[C@@H]2CCCN2C1=O [[^177Lu]Lu-DOTA-FD3, metal not drawn]
mice weight versus free 177Lu treatment group (T3M-4 tumor; 500 μCi): slightly dropped
tumor volume until the end of the observation (T3M-4 tumor; tumor volume around 135 mm^3 at onset, [177Lu]Lu-DOTA-FD3 at 500 μCi): satisfactorily controlled
tissue uptake at 24 h [1]: 28.1 ± 3.52 %ID/g
stable in FBS and PBS, no significant demetallation [2]: at least 24 h
tumor growth at the end of the study (HT1080-FAP tumor; average tumor volume 50 mm^3 at onset, single dose 200 μCi): substantially inhibited the tumor growth
mice that acquired complete response (CR) (HT1080-FAP tumor; average tumor volume 50 mm^3 at onset, single dose 200 μCi, 6 mice per group): 3 out of the 6
tumor relapse (HT1080-FAP tumor; [4]): relapsed from day 14 onward
tumor volume change after treatment (HT1080-FAP tumor; [4]): began to shrink from day 2
tissue uptake at 45 h ([3]; 45 h, read-out: tumor uptake (biodistribution)): 10.5 ± 1.02 %ID/g
tissue uptake at 90 h ([3]; 90 h, read-out: tumor uptake (biodistribution)): 12.4 ± 3.12 %ID/g
tissue uptake at 45 h ([3]; blood, 45 h p.i., read-out: blood pool retention (biodistribution)): 16.3 ± 2.5 %ID/g
tissue uptake at 90 h ([3]; blood, 90 h p.i., read-out: blood pool retention (biodistribution)): 11.5 ± 1.54 %ID/g
